Assay results reported in patent US20210015098A1, “MOLECULES HAVING PESTICIDAL UTILITY, AND INTERMEDIATES, COMPOSITIONS, AND PROCESSES, RELATED THERETO” (DOW AGROSCIENCES LLC, priority 2018, published 2021).

Columns and labels:
[1] = system: Cabbage Looper (Trichoplusia ni, TRIPNI); experiment: Bioassays on Cabbage Looper (CL), 128-well diet tray assay; type: in vivo; conditions: Cabbage Looper, Table ABC Biological Results, read-out: CL (rating)
Protocol: (§1) Certain molecules disclosed in this document were tested against BAW and CL using procedures described in the following examples. In the reporting of the results, the “BAW & CL Rating Table” was used (See Table Section).
Bioassays on CL were conducted using a 128-well diet tray assay. One to five second instar CL larvae were placed in each well (3 mL) of the diet tray that had been previously filled with 1 mL of artificial diet to which 50 μg/cm^2 of the test molecule (dissolved in 50 μL of 90:10 acetone-water mixture) had been applied (to each of eight wells) and then allowed to dry. Trays were covered with a clear self-adhesive cover, vented to allow gas exchange, and held at 25° C., 14:10 light-dark for five to seven days. Percent mortality was recorded for the larvae in each well; activity in the eight wells was then averaged. The results are indicated in the table entitled “Table ABC: Biological Results” (See Table Section).

[2] = system: Beet Armyworm (Spodoptera exigua, LAPHEG); experiment: Bioassays on Beet Armyworm (BAW), 128-well diet tray assay; type: in vivo; conditions: Beet Armyworm, Table ABC Biological Results, read-out: BAW (rating)
Protocol: as §1
Bioassays on BAW were conducted using a 128-well diet tray assay. One to five second instar BAW larvae were placed in each well (3 mL) of the diet tray that had been previously filled with 1 mL of artificial diet to which 50 μg/cm^2 of the test molecule (dissolved in 50 μL of 90:10 acetone-water mixture) had been applied (to each of eight wells) and then allowed to dry. Trays were covered with a clear self-adhesive cover, vented to allow gas exchange, and held at 25° C., 14:10 light-dark for five to seven days. Percent mortality was recorded for the larvae in each well; activity in the eight wells was then averaged. The results are indicated in the table entitled “Table ABC: Biological Results” (See Table Section).

| SMILES | pest or weed control at 50 µg/cm2 [1] [%] | pest or weed control at 50 µg/cm2 [2] [%] |
| --- | --- | --- |
| O=C(CSCC(F)(F)F)Nc1c(F)ccc(NC(=O)c2cc(NC(=O)[C@H]3[C@H](c4ccc(Cl)c(Cl)c4)C3(Cl)Cl)ccc2Cl)c1F [F9, 2-Chloro-5-((1R,3R)-2,2-dichloro-3-(3,4-dichlorophenyl)cyclopropane-1-carboxamido)-N-(2,4-difluoro-3-(2-((2,2,2-trifluoroethyl)thio)acetamido)phenyl)benzamide] | 50 to 100 | 50 to 100 |
| CC(SC(F)(F)F)C(=O)Nc1c(F)ccc(NC(=O)c2cc(NC(=O)[C@H]3[C@H](c4ccc(Cl)c(Cl)c4)C3(Cl)Cl)ccc2Cl)c1F (stereo partly drawn) [F10, 2-Chloro-5-((1R,3R)-2,2-dichloro-3-(3,4-dichlorophenyl)cyclopropane-1-carboxamido)-N-(2,4-difluoro-3-(2-((trifluoromethyl)thio)propanamido)phenyl)benzamide] | 50 to 100 | 50 to 100 |
| O=C(CSC(F)(F)F)Nc1c(F)ccc(NC(=O)c2cc(NC(=O)[C@H]3[C@H](c4ccc(Cl)c(Cl)c4)C3(Cl)Cl)ccc2Cl)c1F [F11, 2-Chloro-5-((1R,3R)-2,2-dichloro-3-(3,4-dichlorophenyl)cyclopropane-1-carboxamido)-N-(2,4-difluoro-3-(2-((trifluoromethyl)thio)acetamido)phenyl)benzamide] | 50 to 100 | 50 to 100 |
| O=C(CSCC(F)(F)F)Nc1c(F)ccc(NC(=O)c2cc(NC(=O)[C@H]3[C@H](c4ccc(F)c(Cl)c4)C3(Cl)Cl)ccc2Cl)c1F [F12, 2-Chloro-5-((1R,3R)-2,2-dichloro-3-(3-chloro-4-fluorophenyl)cyclopropane-1-carboxamido)-N-(2,4-difluoro-3-(2-((2,2,2-trifluoroethyl)thio)acetamido)phenyl)benzamide] | 50 to 100 | 50 to 100 |
| CC(SC(F)(F)F)C(=O)Nc1c(F)ccc(NC(=O)c2cc(NC(=O)[C@H]3[C@H](c4ccc(F)c(Cl)c4)C3(Cl)Cl)ccc2Cl)c1F (stereo partly drawn) [F13, 2-Chloro-5-((1R,3R)-2,2-dichloro-3-(3-chloro-4-fluorophenyl)cyclopropane-1-carboxamido)-N-(2,4-difluoro-3-(2-((trifluoromethyl)thio)propanamido)phenyl)benzamide] | 50 to 100 | 50 to 100 |
| O=C(CSC(F)(F)F)Nc1c(F)ccc(NC(=O)c2cc(NC(=O)[C@H]3[C@H](c4ccc(F)c(Cl)c4)C3(Cl)Cl)ccc2Cl)c1F [F14, 2-Chloro-5-((1R,3R)-2,2-dichloro-3-(3-chloro-4-fluorophenyl)cyclopropane-1-carboxamido)-N-(2,4-difluoro-3-(2-((trifluoromethyl)thio)acetamido)phenyl)benzamide] | 50 to 100 | 50 to 100 |
| O=C(CCSc1ccccc1)Nc1c(F)ccc(NC(=O)c2cc(NC(=O)[C@H]3[C@H](c4ccc(F)c(C(F)(F)F)c4)C3(Cl)Cl)ccc2Cl)c1F [F20, 2-Chloro-5-((1R,3R)-2,2-dichloro-3-(4-fluoro-3-(trifluoromethyl)phenyl)cyclopropane-1-carboxamido)-N-(2,4-difluoro-3-(3-(phenylthio)propanamido)phenyl)benzamide] | 50 to 100 | 50 to 100 |
| O=C(CCSC(F)(F)F)Nc1c(F)ccc(NC(=O)c2cc(NC(=O)[C@H]3[C@H](c4ccc(F)c(C(F)(F)F)c4)C3(Cl)Cl)ccc2Cl)c1F [F22, 2-Chloro-5-((1R,3R)-2,2-dichloro-3-(4-fluoro-3-(trifluoromethyl)phenyl)cyclopropane-1-carboxamido)-N-(2,4-difluoro-3-(3-((trifluoromethyl)thio)propanamido)phenyl)benzamide] | 50 to 100 | 50 to 100 |
| O=C(C[S+]([O-])C(F)(F)F)Nc1c(F)ccc(NC(=O)c2cc(NC(=O)[C@H]3[C@H](c4cc(Cl)c(Cl)c(Cl)c4)C3(Cl)Cl)ccc2Cl)c1F (stereo partly drawn) [F26, 2-Chloro-5-((1R,3R)-2,2-dichloro-3-(3,4,5-trichlorophenyl)cyclopropane-1-carboxamido)-N-(2,4-difluoro-3-(2-((trifluoromethyl)sulfinyl)acetamido)phenyl)benzamide] | 50 to 100 | 50 to 100 |
| CC(C(=O)Nc1c(F)ccc(NC(=O)c2cc(NC(=O)[C@H]3[C@H](c4ccc(F)c(Cl)c4)C3(Cl)Cl)ccc2Cl)c1F)[S+]([O-])C(F)(F)F (stereo partly drawn) [F27, 2-Chloro-5-((1R,3R)-2,2-dichloro-3-(3-chloro-4-fluorophenyl)cyclopropane-1-carboxamido)-N-(2,4-difluoro-3-(2-((trifluoromethyl)sulfinyl)propanamido)phenyl)benzamide] | 50 to 100 | 50 to 100 |
| O=C(C[S+]([O-])C(F)(F)F)Nc1c(F)ccc(NC(=O)c2cc(NC(=O)[C@H]3[C@H](c4ccc(F)c(Cl)c4)C3(Cl)Cl)ccc2Cl)c1F (stereo partly drawn) [F28, 2-Chloro-5-((1R,3R)-2,2-dichloro-3-(3-chloro-4-fluorophenyl)cyclopropane-1-carboxamido)-N-(2,4-difluoro-3-(2-((trifluoromethyl)sulfinyl)acetamido)phenyl)benzamide] | 50 to 100 | 50 to 100 |
| O=C(C[S+]([O-])CC(F)(F)F)Nc1c(F)ccc(NC(=O)c2cc(NC(=O)[C@H]3[C@H](c4cc(Cl)c(Cl)c(Cl)c4)C3(Cl)Cl)ccc2Cl)c1F (stereo partly drawn) [F29, 2-Chloro-5-((1R,3R)-2,2-dichloro-3-(3,4,5-trichlorophenyl)cyclopropane-1-carboxamido)-N-(2,4-difluoro-3-(2-((2,2,2-trifluoroethyl)sulfinyl)acetamido)phenyl)benzamide] | 50 to 100 | 50 to 100 |
| O=C(C[S+]([O-])CC(F)(F)F)Nc1c(F)ccc(NC(=O)c2cc(NC(=O)[C@H]3[C@H](c4ccc(Cl)c(Cl)c4)C3(Cl)Cl)ccc2Cl)c1F (stereo partly drawn) [F30, 2-chloro-5-((R,3R)-2,2-dichloro-3-(3,4-dichlorophenyl)cyclopropane-1-carboxamido)-N-(2,4-difluoro-3-(2-((2,2,2-trifluoroethyl)sulfinyl)acetamido)phenyl)benzamide] | 50 to 100 | 50 to 100 |
| O=C(C[S+]([O-])CC(F)(F)F)Nc1c(F)ccc(NC(=O)c2cc(NC(=O)[C@H]3[C@H](c4ccc(F)c(Cl)c4)C3(Cl)Cl)ccc2Cl)c1F (stereo partly drawn) [F31, 2-Chloro-5-((1R,3R)-2,2-dichloro-3-(3-chloro-4-fluorophenyl)cyclopropane-1-carboxamido)-N-(2,4-difluoro-3-(2-((2,2,2-trifluoroethyl)sulfinyl)acetamido)phenyl)benzamide] | 50 to 100 | 50 to 100 |
| O=C(C[S+]([O-])C(F)(F)F)Nc1c(F)ccc(NC(=O)c2cc(NC(=O)[C@H]3[C@H](c4ccc(F)c(C(F)(F)F)c4)C3(Cl)Cl)ccc2Cl)c1F (stereo partly drawn) [F33, 2-chloro-5-((R,3R)-2,2-dichloro-3-(4-fluoro-3-(trifluoromethyl)phenyl)cyclopropane-1-carboxamido)-N-(2,4-difluoro-3-(2-((trifluoromethyl)sulfinyl)acetamido)phenyl)benzamide] | 50 to 100 | 50 to 100 |
| CC(C(=O)Nc1c(F)ccc(NC(=O)c2cc(NC(=O)[C@H]3[C@H](c4cc(Cl)c(Cl)c(Cl)c4)C3(Cl)Cl)ccc2Cl)c1F)S(=O)(=O)C(F)(F)F (stereo partly drawn) [F35, 2-Chloro-5-((1R,3R)-2,2-dichloro-3-(3,4,5-trichlorophenyl)cyclopropane-1-carboxamido)-N-(2,4-difluoro-3-(2-((trifluoromethyl)sulfonyl)propanamido)phenyl)benzamide] | 50 to 100 | 50 to 100 |
| O=C(CS(=O)(=O)C(F)(F)F)Nc1c(F)ccc(NC(=O)c2cc(NC(=O)[C@H]3[C@H](c4cc(Cl)c(Cl)c(Cl)c4)C3(Cl)Cl)ccc2Cl)c1F [F36, 2-Chloro-5-((1R,3R)-2,2-dichloro-3-(3,4,5-trichlorophenyl)cyclopropane-1-carboxamido)-N-(2,4-difluoro-3-(2-((trifluoromethyl)sulfonyl)acetamido)phenyl)benzamide] | 50 to 100 | 50 to 100 |
| CC(C(=O)Nc1c(F)ccc(NC(=O)c2cc(NC(=O)[C@H]3[C@H](c4ccc(Cl)c(Cl)c4)C3(Cl)Cl)ccc2Cl)c1F)S(=O)(=O)C(F)(F)F (stereo partly drawn) [F37, 2-Chloro-5-((1R,3R)-2,2-dichloro-3-(3,4-dichlorophenyl)cyclopropane-1-carboxamido)-N-(2,4-difluoro-3-(2-((trifluoromethyl)sulfonyl)propanamido)phenyl)benzamide] | 50 to 100 | 50 to 100 |
| O=C(CS(=O)(=O)C(F)(F)F)Nc1c(F)ccc(NC(=O)c2cc(NC(=O)[C@H]3[C@H](c4ccc(Cl)c(Cl)c4)C3(Cl)Cl)ccc2Cl)c1F [F38, 2-Chloro-5-((1R,3R)-2,2-dichloro-3-(3,4-dichlorophenyl)cyclopropane-1-carboxamido)-N-(2,4-difluoro-3-(2-((trifluoromethyl)sulfonyl)acetamido)phenyl)benzamide] | 50 to 100 | 50 to 100 |
